Source: publication PMC12915096, “AI‐Driven Acceleration of Fluorescence Probe Discovery” (Advanced Science, 2025)

Columns and labels:
tau aggregates [1] = target: T1, tau aggregates (Homo sapiens, UniProt P10636); test: Dissociation constant measurement by fluorescence titration; format: binding; details: tau aggregates titrated with probe, 37°C 1 h
T1 construct: purchased QYAOBIO
Protocol: The human recombinant tau protein (1 mg, QYAOBIO) was dissolved in PBS containing 110 µM heparin sodium to a final concentration of 55 µM. The solution was shake vigorously (100 rpm, Crystal IS‐RDV1) at 37°C for 72 h. Similarly, the human recombinant TDP‐43 protein (0.9 mg, Sangon Biotech) was dissolved in 1 mL Tris buffer (50 mM Tris, 300 mM NaCl, 10% Glycerol, pH 8.0) and was shake vigorously (200 rpm, Crystal IS‐RDV1) at 37°C for 48 h. Aggregates formation was monitored and verified using ThT fluorescence assay. The resulting aggregates was divided into aliquots and stored at −20°C before use.
To 1 µM protein solution in PBS containing 10% DMSO, different concentrations of probe was added (final concentration 0, 1, 2, 5, 8, 10, 20, 50, 80, 100, 200, 500, 800, and 1000 nM). The mixture was dispensed into 96‐well plates and incubated at 37°C for 1 h. The fluorescence intensity of the samples was recorded at maximum emission wavelength of probe by using a microplate reader (PerkinElmer, VICTOR Nivo^TM). Dose‐ response curves were generated by plotting fluorescence intensity against probe concentration, and equilibrium dissociation constants were calculated via nonlinear regression analysis in GraphPad Prism.

tau aggregates [2] = target: T1, tau aggregates; test: Fluorescence turn-on response / spectral assay with tau aggregates; format: binding
Protocol: (§1) To evaluate the fluorescence turn‐on responses to targets, protein (2 µM) were incubated with probe solutions (2 µM, PBS containing 10% DMSO) for 60 min at room temperature. For probe B3, specific experiments involved co‐incubation of 5 µM B3 with 10 µM TDP‐43 aggregates for 60 min.

[3] = Selectivity evaluation (fluorescence response to non-target analytes); details: probe 1 µM, analytes 2 µM, 60 min
Protocol: For selectivity evaluation, the probes were diluted to a final concentration of 1 µM and treated with 2 µM of various analytes. After 60 min of incubation at room temperature, fluorescence intensity was recorded at the specific excitation and emission wavelengths for each probe. The maximum emission wavelength intensity was plotted against the respective analytes.

[4] = target: tau aggregates in AD brain sections (Homo sapiens, UniProt P10636); test: Pathological staining, colocalization with anti-tau antibody
Chain of tau aggregates in AD brain sections (P10636 623-695 limits assumed): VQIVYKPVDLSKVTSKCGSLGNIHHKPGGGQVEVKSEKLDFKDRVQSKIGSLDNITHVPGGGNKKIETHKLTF
Protocol: (§2) Human brain tissues of AD or ALS patients and human neuroblastoma tissues were immersed in xylene three times for 5 min to remove paraffin, followed by two 10 min washes with a series of diluted alcohols (100, 90%, 70%, and 50% ethanol in dd water, v/v). Following PBS washing, heat‐mediated antigen retrieval was per‐ formed in 10 mM citrate buffer (pH 9.0) using a temperature‐gradient protocol: samples were gradually heated to boiling point through sequential low‐to‐high intensity thermal exposure (total 15 min duration), followed by natural cooling to ambient temperature. […] To avoid the fluorescence overlap between antibody staining and probe labeling, specific secondary antibodies were selected. […]
(§3) The fluorescence images of tissues were acquired by a scanning microscope (KF‐FL‐020, KFBIO).
(§4) All experiments were conducted over 3–5 independent experiments, and error bars represent the S.E.M across these runs. […] Statistical analysis was performed using GraphPad Prism 8.3.0, with significance determined by one‐way ANOVA followed by Tukey's or Dunnett's post hoc tests. […] Colocalization analysis was performed using the Pearson's correlation coefficient (PCC) calculated via ImageJ software.

[5] = Photostability evaluation under continuous excitation; format: physicochemical; details: 3 h illumination, PBS with 10% DMSO
Protocol: For photostability evaluation, PE859, 859‐1, or 859‐1 were diluted to 10 µM in PBS containing 10% DMSO. The solutions were loaded into a fluorescence spectrometer and the fluorescent intensity at maximum emission wavelength was recorded under continuous excitation for 180 min.

[6] = Photophysical property characterization (absorption/emission spectra, quantum yield); format: physicochemical; details: for λAbs b, spectra assays data / λEm b, spectra assays data / ε: acetonitrile (MeCN); for λAbs b, spectra assays data / λEm b, spectra assays data: 10 µM, Extended Data Table 1; for ε: in M-1·cm-1 (unit assumed)
Protocol: For absorption and emission spectra measurements, the molecules were diluted to 10 µM in various solvents, including EtOH, DMSO, MeCN, H2O, and MeOH. Prior to analysis, the prepared samples were equilibrated at 25°C for 5 min to ensure consistent conditions. Subsequently, their absorption and emission spectra were measured. The absolute fluorescence quantum yield of these probes was measured using the FLS1000 Photoluminescence Spectrometer (Edinburgh Instruments Ltd.).

TDP-43 aggregates = target: T2, TDP-43 aggregates (Homo sapiens, UniProt Q13148); test: Fluorescence turn-on response / spectral assay with TDP-43 aggregates; format: binding
T2 construct: purchased Sangon Biotech
T2 sequence (Q13148 whole entry): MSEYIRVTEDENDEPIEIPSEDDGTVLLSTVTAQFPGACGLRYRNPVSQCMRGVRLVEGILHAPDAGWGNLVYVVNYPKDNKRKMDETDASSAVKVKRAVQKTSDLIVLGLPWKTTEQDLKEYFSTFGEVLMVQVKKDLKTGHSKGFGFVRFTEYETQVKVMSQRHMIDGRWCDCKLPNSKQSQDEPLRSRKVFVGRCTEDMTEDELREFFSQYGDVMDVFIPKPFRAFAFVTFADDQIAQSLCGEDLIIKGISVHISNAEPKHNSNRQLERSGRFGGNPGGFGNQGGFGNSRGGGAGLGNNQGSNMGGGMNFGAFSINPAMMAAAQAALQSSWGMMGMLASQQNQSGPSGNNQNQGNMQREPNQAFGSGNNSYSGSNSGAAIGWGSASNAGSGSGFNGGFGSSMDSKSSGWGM
Protocol: as §1

[7] = target: T3, TDP-43 aggregates in ALS brain sections (Homo sapiens, UniProt Q13148); test: Pathological staining, colocalization with anti-TDP-43 antibody; details: brain sections from an ALS patient
T3 construct: from tissue; host or cells: paraffin sections of human ALS patient brain
T3 sequence (Q13148 whole entry): as above
Protocol: as §2, §3, §4

tau = details: previous reports; ref [36], [37], [38]; cited from earlier work
BCL-2 [8] = target: T4, BCL-2 (Homo sapiens, UniProt P10415); test: Fluorescence turn-on response / spectral assay with BCL-2; format: binding
T4 sequence (P10415 whole entry, species assumed): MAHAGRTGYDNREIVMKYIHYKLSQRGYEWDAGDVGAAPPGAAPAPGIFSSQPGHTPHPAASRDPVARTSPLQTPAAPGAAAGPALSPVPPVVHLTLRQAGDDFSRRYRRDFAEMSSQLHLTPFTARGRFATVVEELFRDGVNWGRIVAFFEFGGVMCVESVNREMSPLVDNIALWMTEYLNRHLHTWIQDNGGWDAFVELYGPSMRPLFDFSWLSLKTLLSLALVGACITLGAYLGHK
Protocol: as §1

[9] = target: T5, BCL-2 in neuroblastoma tumor tissue sections (Homo sapiens, UniProt P10415); test: Pathological staining, colocalization with anti-BCL-2 antibody
T5 construct: from tissue; host or cells: human neuroblastoma tissue sections
T5 sequence (P10415 whole entry): as the sequence (P10415 whole entry, species assumed) above
Protocol: as §2, §3, §4

[10] = target: T6, BCL-2 in U2932 and SU-DHL-6 cells (Homo sapiens, UniProt P10415); test: Cell imaging with anti-BCL-2 co-staining; format: cell-based; details: U2932 and SU-DHL-6, 5 µM obatoclax
T6 construct: endogenous in cells; host or cells: U2932 and SU-DHL-6
T6 sequence (P10415 whole entry): as the sequence (P10415 whole entry, species assumed) above
Protocol: Cells of the logarithmic growth phase were taken and transferred them to centrifuge tubes (5 × 10^4 cells/mL). After centrifugation, the culture medium was discarded. Cells were washed once with PBS, centrifuged, and the supernatant aspirated. One milliliter of ice methanol was added, followed by gentle resuspension and fixation for 30 min. After centrifugation, the supernatant was discarded, and cells were washed twice with PBS. Subsequently, 500 µL of 5% BSA blocking solution was added, and cells were gently resuspended before transfer to a 35‐mm confocal dish for sealing and incubation at room temperature for 1 h. The cell suspension was then added into a centrifuge tube, centrifuged to remove blocking solution, and resuspended in 500 µL of primary antibody solution (Proteintech, 12789‐1‐AP, 1:500). Cells were transferred to a confocal dish and incubated overnight at 4°C. After centrifugation to remove primary antibody, cells were washed twice with PBS. Next, 500 µL of secondary antibody (Beyotime, A0468, 1:500) was added, followed by incubation at room temperature for 1 h. Following centrifugation, the cells were washed twice with PBS and stained with 500 µL of DAPI solution (Beyotime, C1006) for 10 min at room temperature. […] After centrifugation, cells were washed twice with PBS, resuspended in 1 mL PBS, transferred to a confocal dish, and imaged with a laser confocal microscope.

[11] = tested on: SU-DHL-6 lymphoma xenografts; test: Tumor model ex vivo fluorescence imaging; format: in vivo, mice; details: 10 mg/kg i.v., 4 h post-injection
Protocol: SU-DHL-6 cells were suspended in 100 μL of 50% Matrigel / PBS mixture. Hun dred microliters of SU-DHL-6 cell suspensions, corresponding to 1.8 × 10^6 cells per mouse, were subcutaneously injected into the left flank region of NSFG mice (female, aged 8-10 weeks). The mice were monitored for tumor formation. […] Mice were sacrificed after 4 h and tissues (heart, liver, spleen, lung, kidney, and tumor) were obtained. The fluorescence signals in tissues were recorded using the […] imaging system.

BCL-2 [12] = target: T4, BCL-2; details: previous reports; ref [36], [37], [38]; cited from earlier work

T1 sequence (P10636 1-441 isoform P10636-8): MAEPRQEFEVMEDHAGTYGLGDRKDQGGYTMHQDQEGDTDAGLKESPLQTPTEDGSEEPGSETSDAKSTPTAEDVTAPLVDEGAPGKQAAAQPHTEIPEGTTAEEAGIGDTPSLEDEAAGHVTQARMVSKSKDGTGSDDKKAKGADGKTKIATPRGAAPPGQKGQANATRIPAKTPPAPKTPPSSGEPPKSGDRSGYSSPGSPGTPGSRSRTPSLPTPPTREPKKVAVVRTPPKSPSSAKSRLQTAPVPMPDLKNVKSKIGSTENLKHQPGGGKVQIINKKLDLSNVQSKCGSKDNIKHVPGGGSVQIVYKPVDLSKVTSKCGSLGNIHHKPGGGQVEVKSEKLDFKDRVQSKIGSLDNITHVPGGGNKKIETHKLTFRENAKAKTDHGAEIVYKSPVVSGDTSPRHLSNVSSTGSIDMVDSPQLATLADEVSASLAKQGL

| Structure (SMILES) | Pearson Correlation Coefficient (PCC) with anti-tau antibody staining [4] | λAbs ([6]; DMSO) | λEm ([6]; DMSO) | λAbs ([6]; EtOH, Extended Data Table 5) | λEm ([6]; EtOH, Extended Data Table 5) | λAbs ([6]; H2O, Extended Data Table 5) | Quantum yield experimental ([6]; MeCN) | log10ε experimental ([6]; MeCN) | λAbs ([6]; MeCN, Extended Data Table 5) | λEm ([6]; MeCN, Extended Data Table 5) | λAbs ([6]; MeOH, Extended Data Table 5) | λEm ([6]; MeOH, Extended Data Table 5) | λAbs b, spectra assays data [6] | λEm b, spectra assays data [6] | ε [6] | Fluorescence turn-on response to tau aggregates (tau aggregates [2]) | also measured |
| --- | --- | --- | --- | --- | --- | --- | --- | --- | --- | --- | --- | --- | --- | --- | --- | --- | --- |
| Cc1ccc(Cl)cc1NC(=O)c1cc2c(=O)n3cccc(C)c3nc2n1C [B3] | – | – | – | – | – | – | 0.2891 | 4.2923 | – | – | – | – | 370 nm | 443 nm | 19600 | – | Blue shift of emission upon interaction with TDP-43 aggregates (TDP-43 aggregates): 30 nm; Fluorescence turn-on response to TDP-43 aggregates (TDP-43 aggregates): most significant fluorescence enhancement; PCC with anti-TDP-43 antibody staining [7]: 0.95 |
| Cn1c(C(=O)Nc2ccc(OC(F)(F)F)cc2)cc2c(=O)n3ccccc3nc21 [B5] | – | – | – | – | – | – | – | – | – | – | – | – | 382 nm | 450 nm | 19800 | – | – |
| Cc1ccc(-n2c(/C=C\c3ccc(F)c(F)c3)nc3ccccc3c2=O)c(C)c1 [B6] | – | – | – | – | – | – | – | – | – | – | – | – | 330 nm | 450 nm | 20200 | – | – |
| COC1=CC(c2cc3ccccc3[nH]2)=N/C1=C\c1[nH]c(C)cc1C [obatoclax] | – | – | – | – | – | – | 0.0069 | 4.5902 | – | – | – | – | 480 nm | 540 nm | 38920 | – | Blue shift of emission in the presence of BCL-2 (BCL-2 [8]): 7 nm; Fluorescence turn-on response to BCL-2 (BCL-2 [8]): most significant fluorescence enhancement; PCC with anti-BCL-2 antibody staining [9]: 0.80; Detection of BCL-2 in overexpressing cell lines [10]: effectively detected; Accumulation in tumors versus other organs [11]: higher accumulation in tumors compared to other organs; Ki (BCL-2 [12]): 220 nM |

The next lines start with results.

| Pearson Correlation Coefficient (PCC) with anti-tau antibody staining [4] | λAbs ([6]; DMSO) | λEm ([6]; DMSO) | λAbs ([6]; EtOH, Extended Data Table 5) | λEm ([6]; EtOH, Extended Data Table 5) | λAbs ([6]; H2O, Extended Data Table 5) | Quantum yield experimental ([6]; MeCN) | log10ε experimental ([6]; MeCN) | λAbs ([6]; MeCN, Extended Data Table 5) | λEm ([6]; MeCN, Extended Data Table 5) | λAbs ([6]; MeOH, Extended Data Table 5) | λEm ([6]; MeOH, Extended Data Table 5) | λAbs b, spectra assays data [6] | λEm b, spectra assays data [6] | ε [6] | Structure (SMILES) | Fluorescence turn-on response to tau aggregates (tau aggregates [2]) | also measured |
| --- | --- | --- | --- | --- | --- | --- | --- | --- | --- | --- | --- | --- | --- | --- | --- | --- | --- |
| 0.95 | 539 nm | 610 nm | 513 nm | 588 nm | 510 nm | 0.0063 | 4.9784 | 514 nm | 594 nm | 514 nm | 595 nm | – | – | – | COc1cc(OCc2ccccn2)ccc1/C=C/C1=[O+][B-](F)(F)OC(/C=C/c2ccc3cc[nH]c3c2)=C1 [859-1] | substantially increased fluorescence intensity | Kd (tau aggregates [1]): 217 nM; Emission redshift when incubated with tau aggregates (tau aggregates [2]; probe 2 µM, tau aggregates 4 µM): 6 nm; Fluorescence response to non-target analytes (selectivity) [3]: minimal response to other analytes; Fluorescence intensity variation under continuous illumination [5]: 152%; Emission redshift compared to PE859 ([6]; MeCN): 192 nm |
| 0.85 | 343 nm | 408 nm | 335 nm | 397 nm | 352 nm | 0.1223 | 4.9675 | 338 nm | 402 nm | 337 nm | 410 nm | 335 nm | – | 92780 | COc1cc(OCc2ccccn2)ccc1/C=C/c1cc(/C=C/c2ccc3cc[nH]c3c2)[nH]n1 [PE859] | most significant fluorescence enhancement | Blue shift in emission maximum upon binding to tau aggregates (tau aggregates [2]): 10 nm; λEm ([6]; H2O, Extended Data Table 5): 422 nm; IC50 (tau): 660 nM |
